From the NIST ThermoML archive (doi:10.1016/j.jct.2006.05.009)
Numbers after ± are expanded uncertainties.

Assays:
[1] = molar heat capacity at constant pressure; conditions: 101.33 kPa, Crystal 2
[2] = Molar enthalpy of transition or fusion

Cn1c(=O)c2c(ncn2C)n(C)c1=O [caffeine]
Conditions	Molar enthalpy of transition or fusion [kJ/mol]	molar heat capacity at constant pressure [J/K/mol]
[1], 80.83 K	–	98.31 ± 1.8
[1], 84.15 K	–	101.95 ± 1.8
[1], 87.22 K	–	104.62 ± 1.9
[1], 90.15 K	–	106.27 ± 1.9
[1], 93.05 K	–	109.02 ± 1.9
[1], 95.91 K	–	112.23 ± 1.9
[1], 98.73 K	–	116.53 ± 2
[1], 101.49 K	–	119.06 ± 2
[1], 104.21 K	–	121.47 ± 2.1
[1], 106.88 K	–	123.99 ± 2.1
[1], 109.98 K	–	125.77 ± 2.1
[1], 113.03 K	–	127.49 ± 2.1
[1], 115.96 K	–	130.48 ± 2.2
[1], 118.81 K	–	132.67 ± 2.2
[1], 121.58 K	–	134.84 ± 2.2
[1], 124.27 K	–	136.76 ± 2.2
[1], 126.89 K	–	139.36 ± 2.3
[1], 129.43 K	–	140.97 ± 2.3
[1], 131.92 K	–	142.97 ± 2.3
[1], 134.34 K	–	144.92 ± 2.3
[1], 136.69 K	–	145.99 ± 2.4
[1], 138.99 K	–	148.53 ± 2.4
[1], 141.24 K	–	149.98 ± 2.4
[1], 143.42 K	–	150.47 ± 2.4
[1], 145.52 K	–	151.98 ± 2.4
[1], 148 K	–	155.83 ± 2.5
[1], 150.06 K	–	156.99 ± 2.5
[1], 152.08 K	–	157.88 ± 2.5
[1], 154.08 K	–	159.38 ± 2.5
[1], 156.06 K	–	160.61 ± 2.5
[1], 158.01 K	–	161.82 ± 2.5
[1], 159.95 K	–	162.55 ± 2.6
[1], 161.87 K	–	163.14 ± 2.6
[1], 163.77 K	–	164.64 ± 2.6
[1], 165.79 K	–	164.91 ± 2.6
[1], 168.47 K	–	166.4 ± 2.6
[1], 171.41 K	–	166.83 ± 2.6
[1], 174.32 K	–	167.9 ± 2.6
[1], 177.21 K	–	169.06 ± 2.6
[1], 180.03 K	–	169.58 ± 2.6
[1], 182.8 K	–	171.5 ± 2.7
[1], 185.57 K	–	172.7 ± 2.7
[1], 188.3 K	–	174.64 ± 2.7
[1], 191 K	–	176.3 ± 2.7
[1], 193.71 K	–	178.38 ± 2.7
[1], 196.39 K	–	179.3 ± 2.8
[1], 199.05 K	–	180.41 ± 2.8
[1], 201.7 K	–	181.59 ± 2.8
[1], 204.31 K	–	182.99 ± 2.8
[1], 206.91 K	–	184.79 ± 2.8
[1], 209.47 K	–	186.12 ± 2.8
[1], 212.08 K	–	187.01 ± 2.8
[1], 214.76 K	–	189.97 ± 2.9
[1], 217.47 K	–	191.2 ± 2.9
[1], 220.2 K	–	192.68 ± 2.9
[1], 222.95 K	–	194.21 ± 2.9
[1], 226.26 K	–	195.06 ± 2.9
[1], 230.04 K	–	197.34 ± 3
[1], 233.76 K	–	198.99 ± 3
[1], 237.43 K	–	200.1 ± 3
[1], 241.09 K	–	202.07 ± 3
[1], 244.7 K	–	202.6 ± 3
[1], 248.28 K	–	203.14 ± 3
[1], 251.82 K	–	203.17 ± 3
[1], 255.32 K	–	204.06 ± 3.1
[1], 258.78 K	–	205.75 ± 3.1
[1], 259.39 K	–	207.72 ± 3.1
[1], 262.25 K	–	207.77 ± 3.1
[1], 265.07 K	–	209.13 ± 3.1
[1], 267.83 K	–	210.94 ± 3.1
[1], 270.58 K	–	212.28 ± 3.2
[1], 273.31 K	–	213.56 ± 3.2
[1], 276.04 K	–	215.35 ± 3.2
[1], 278.76 K	–	217.05 ± 3.2
[1], 281.49 K	–	217.99 ± 3.2
[1], 284.22 K	–	220.07 ± 3.2
[1], 286.92 K	–	223.22 ± 3.3
[1], 289.58 K	–	223.75 ± 3.3
[1], 292.23 K	–	225.69 ± 3.3
[1], 294.87 K	–	226.47 ± 3.3
[1], 297.52 K	–	227.12 ± 3.3
[1], 300.14 K	–	227.17 ± 3.3
[1], 302.75 K	–	228.98 ± 3.4
[1], 305.33 K	–	230.29 ± 3.4
[1], 307.91 K	–	230.71 ± 3.4
[1], 310.51 K	–	233.27 ± 3.4
[1], 313.09 K	–	234.23 ± 3.4
[1], 315.65 K	–	234.61 ± 3.4
[1], 318.19 K	–	235.23 ± 3.4
[1], 320.86 K	–	237.37 ± 3.5
[1], 323.42 K	–	238.29 ± 3.5
[1], 325.99 K	–	238.92 ± 3.5
[1], 328.63 K	–	240.12 ± 3.5
[1], 331.31 K	–	243.07 ± 3.5
[1], 333.96 K	–	245.08 ± 3.5
[1], 336.61 K	–	246.31 ± 3.6
[1], 339.22 K	–	248.21 ± 3.6
[1], 341.76 K	–	249.29 ± 3.6
[1], 344.27 K	–	251.55 ± 3.6
[1], 346.83 K	–	253.2 ± 3.6
[1], 349.18 K	–	254.04 ± 3.7
[1], 351.69 K	–	255.21 ± 3.7
[1], 354.36 K	–	256.94 ± 3.7
[1], 357.01 K	–	258.67 ± 3.7
[1], 359.66 K	–	260.51 ± 3.7
[1], 362.27 K	–	261.86 ± 3.7
[1], 364.86 K	–	262.9 ± 3.8
[1], 367.44 K	–	264.99 ± 3.8
[1], 369.95 K	–	266.24 ± 3.8
[1], 372.45 K	–	266.46 ± 3.8
[1], 374.91 K	–	267.26 ± 3.8
[1], 377.39 K	–	269.44 ± 3.8
[1], 379.84 K	–	270.33 ± 3.8
[1], 382.28 K	–	271.84 ± 3.9
[1], 384.69 K	–	272.71 ± 3.9
[1], 387.08 K	–	274.88 ± 3.9
[2], Crystal 1	19.9 ± 0.92	–
[2], Crystal 2	3.43 ± 0.58	–

Conditions	Triple point temperature [K]
Crystal 1	509 ± 0.8
Crystal 2	413.39 ± 0.77
